{"source": "patent US20100150868A1", "about": "“Methods of Individually Optimizing Treatment for an Inflammation Associated Disease” (Tel HaShomer Medical Research Infrastructure and Services …, priority 2005, published 2010)", "origin": "cited, not measured here", "system": "TNF-α secretion of MOG stimulated PBMC", "settings": "in vitro, 10 μg/ml"}
{"substance": "Glatiramer acetate [Copaxone]", "values": [{"measurement": "inhibitory effect on TNF-α producing cells compared with in-vivo experiments", "value": "same inhibitory effect"}]}
